Experiments:
reniform nematodes = assay: Nematicidal activity in covered pots of naturally infested silt loam, soybean planted after 12 days; type: in vivo, Rotylenchulus reniformus
Method: (§1) In this study, the soil was naturally infested with four species of nematodes, two of which were deleterious and two beneficial, and observations were made of both the nematode survival and the growth of the soybean plants.
(§2) Stock solutions of hydrogen cyanamide at 1.0% by weight and propionic acid at 5.0% by weight, both in water, were prepared, the hydrogen cyanamide from a phosphate-buffered 50% aqueous solution. Planting pots measuring 10 cm in diameter, each containing 1 kg of soil, were used. The soil was silt loam from a cotton field, pH 6.2, CEC<10 meq/100 g soil, organic matter<1.0%. The treatment chemicals were combined in various dilutions such that 100 mL of the combined dilutions contained the desired amount of each chemical for each test. The combined dilutions were then applied to the soil surface in each pot, at 100 mL of combined dilution per pot. The dilutions were selected to achieve target application rates expressed in milligrams of the treatment chemical per kilogram of soil, with 1 milligram of treatment chemical per kilogram of soil being approximately equal to 2 kilograms of the chemical per hectare of soil or 2 pounds of the chemical per acre of soil.
(§3) Immediately after the treatment chemicals were applied, each pot was covered by a thick (1.5 mil), clear, low-density polyethylene bag. After twelve days, the bags were removed and soil samples were taken from each pot for nematological analysis by the salad bowl technique of Rodriguez-Kabana, R., and M. H. Pope, Nematropica, 11: 175-186 (1981). The results of these analyses are listed in Table I as pre-plant test results. The results for the two deleterious nematodes are also shown as plots of the number of nematodes vs. the hydrogen cyanamide application rate in FIGS. 1 and 2.
(§4) After the polyethylene bags were removed, each pot was planted with Hutcheson soybean seeds at 5 seeds per pot, and the seeds were allowed to germinate and the plants to grow for 45 days. The resulting plants were then removed from the pots, the root systems were washed, and the number of plants in each pot was determined. The weights of both fresh shoots and roots were also determined as well as the shoot height and the relative health of the root system, using a subjective index. Soil samples were also collected, and the soil and roots were incubated to determine nematode populations. Treatments were arranged in randomized complete block design with seven replications per treatment, and statistical evaluation of the data was performed with analyses of variance (ANOVA) and standard regression procedures. Fischer's Least Significant Difference at p 0.05 was calculated when appropriate. The results of these tests are listed as final test results in Tables II, III, and IV, with nematode populations in the soil listed in Table II, the nematode populations in the root systems in Table III, and the plant and root parameters of the soybean shoots in Table IV.

microbivorous nematodes = assay: Effect on beneficial nematodes in covered pots of silt loam; type: in vivo
Method: as §1, §2, §3, §4

morningglory = assay: Herbicidal activity, phosphate-free cyanamide and propionic acid, post-emergence, uncovered pots; type: in vivo, Ipomoea spp.; settings: for Weeds Per Pot: Morningglory: cyanamide 150 mg/kg soil
Description: (§5) The procedures in this example differed from those of Example 2, however, by the use of hydrogen cyanamide crystals free of phosphate ion to prepare the aqueous hydrogen cyanamide solution, by the use of post-emergence application, and by the omission of any covering of the pots during any part of the test. Observations were made for total weed growth, and individual observations were also made for yellow nutsedge, crabgrass, sicklepod, and momingglory. Stock solutions of hydrogen cyanamide at 1.25% by weight and propionic acid at 5.0% by weight, both in water, were prepared as before, except that the hydrogen cyanamide solution, as noted above, was prepared by dissolving hydrogen cyanamide crystals in water in the absence of phosphate ion. […] The weeds were allowed to grow for three weeks before the treatment chemicals were applied. […] Data analyses were performed in the same manner as Examples 1 and 2. Table IX lists the results in weeds per pot for all weeds, Table X for yellow nutsedge, Table XI for crabgrass, Table XII for sicklepod, and Table XIII for morningglory, all both with propionic acid alone at various application rates and with […]

Hutcheson soybean = assay: Crop (soybean) conditions after soil treatment; type: in vivo; settings: 57 d after treatment; for Number of Plants/Pot: 5 seeds/pot
Method: as §4, with “In this study,” for “After”, “soil was naturally infested with four species of nematodes, two of which” for “polyethylene bags”, “deleterious and two beneficial, and observations were made of both the nematode survival” for “removed, each pot was planted with Hutcheson soybean seeds at 5 seeds per pot,”, “growth of the soybean plants. Stock solutions of hydrogen cyanamide at 1.0% by weight and propionic acid at 5.0% by weight, both in water,” for “seeds”, “prepared,” for “allowed to germinate and”, “hydrogen cyanamide from a phosphate-buffered 50% aqueous solution. Planting pots measuring 10 cm in diameter, each containing 1 kg of soil, were used. […]” for “plants to grow for 45 days.”

sicklepod = assay: Herbicidal activity, phosphate-free cyanamide and propionic acid, post-emergence, uncovered pots; type: in vivo, Senna obtusifolia; settings: for Weeds Per Pot: Sicklepod: cyanamide 150 mg/kg soil
Description: as §5

[1] = 12 d after treatment, pre-plant, cyanamide 20 mg/kg soil
[2] = 12 d after treatment, pre-plant, cyanamide 40 mg/kg soil
[3] = 12 d after treatment, pre-plant, cyanamide 60 mg/kg soil
[4] = 12 d after treatment, pre-plant, cyanamide 80 mg/kg soil
[5] = 12 d after treatment, pre-plant, cyanamide 120 mg/kg soil
[6] = 57 d after treatment, 45 d after planting, cyanamide 20 mg/kg soil
[7] = 57 d after treatment, 45 d after planting, cyanamide 40 mg/kg soil
[8] = 57 d after treatment, 45 d after planting, cyanamide 60 mg/kg soil
[9] = 57 d after treatment, 45 d after planting, cyanamide 80 mg/kg soil
[10] = 57 d after treatment, 45 d after planting, cyanamide 120 mg/kg soil
[11] = 57 d after treatment, cyanamide 20 mg/kg soil
[12] = 57 d after treatment, cyanamide 40 mg/kg soil
[13] = 57 d after treatment, cyanamide 60 mg/kg soil
[14] = 57 d after treatment, cyanamide 80 mg/kg soil
[15] = 57 d after treatment, cyanamide 120 mg/kg soil
[16] = hydrogen cyanamide 125 mg/kg of soil alone, all intervals

N#CN [Cyanamide, hydrogen cyanamide]
Surviving Nematodes: Reniform (reniform nematodes; [1]): 274 per 100 mL of soil | Surviving Nematodes: Reniform (reniform nematodes; [2]): 191 per 100 mL of soil | Surviving Nematodes: Reniform (reniform nematodes; [3]): 102 per 100 mL of soil | Surviving Nematodes: Reniform (reniform nematodes; [4]): 120 per 100 mL of soil | Surviving Nematodes: Reniform (reniform nematodes; [5]): 16 per 100 mL of soil | Surviving Nematodes: Reniform (reniform nematodes; [6]): 240 per 100 mL of soil | Surviving Nematodes: Reniform (reniform nematodes; [7]): 190 per 100 mL of soil | Surviving Nematodes: Reniform (reniform nematodes; [8]): 167 per 100 mL of soil | Surviving Nematodes: Reniform (reniform nematodes; [9]): 354 per 100 mL of soil | Surviving Nematodes: Reniform (reniform nematodes; [10]): 95 per 100 mL of soil | Surviving Nematodes in Root System: Reniform (reniform nematodes; [11]): 25.7 Per Pot | Surviving Nematodes in Root System: Reniform (reniform nematodes; [12]): 9.6 Per Pot | Surviving Nematodes in Root System: Reniform (reniform nematodes; [13]): 13.4 Per Pot | Surviving Nematodes in Root System: Reniform (reniform nematodes; [14]): 19.4 Per Pot | Surviving Nematodes in Root System: Reniform (reniform nematodes; [15]): 4.3 Per Pot | Surviving Nematodes: Microbivorous (microbivorous nematodes; [1]): 92 per 100 mL of soil | Surviving Nematodes: Microbivorous (microbivorous nematodes; [2]): 86 per 100 mL of soil | Surviving Nematodes: Microbivorous (microbivorous nematodes; [3]): 96 per 100 mL of soil | Surviving Nematodes: Microbivorous (microbivorous nematodes; [4]): 144 per 100 mL of soil | Surviving Nematodes: Microbivorous (microbivorous nematodes; [5]): 75 per 100 mL of soil | Surviving Nematodes: Microbivorous (microbivorous nematodes; [6]): 132 per 100 mL of soil | Surviving Nematodes: Microbivorous (microbivorous nematodes; [7]): 121 per 100 mL of soil | Surviving Nematodes: Microbivorous (microbivorous nematodes; [8]): 78 per 100 mL of soil | Surviving Nematodes: Microbivorous (microbivorous nematodes; [9]): 99 per 100 mL of soil | Surviving Nematodes: Microbivorous (microbivorous nematodes; [10]): 52 per 100 mL of soil | Surviving Nematodes in Root System: Microbivorous (microbivorous nematodes; [11]): 176.9 Per Pot | Surviving Nematodes in Root System: Microbivorous (microbivorous nematodes; [12]): 126.9 Per Pot | Surviving Nematodes in Root System: Microbivorous (microbivorous nematodes; [13]): 118 Per Pot | Surviving Nematodes in Root System: Microbivorous (microbivorous nematodes; [14]): 113 Per Pot | Surviving Nematodes in Root System: Microbivorous (microbivorous nematodes; [15]): 123 Per Pot | Weeds Per Pot: Morningglory (morningglory; 6 d after treatment): 3.3 | Weeds Per Pot: Morningglory (morningglory; 13 d after treatment): 2.7 | Weeds Per Pot: Morningglory (morningglory; 20 d after treatment): 2.9 | Morningglory weeds per pot (morningglory; [16]): about three or fewer momingglory weeds per pot | Number of Plants/Pot (Hutcheson soybean; cyanamide 20 mg/kg soil): 4 | Number of Plants/Pot (Hutcheson soybean; cyanamide 40 mg/kg soil): 3.9 | Number of Plants/Pot (Hutcheson soybean; cyanamide 60 mg/kg soil): 4.7 | Number of Plants/Pot (Hutcheson soybean; cyanamide 80 mg/kg soil): 4.4 | Number of Plants/Pot (Hutcheson soybean; cyanamide 120 mg/kg soil): 4.9 | Fresh Shoot Weight (Hutcheson soybean; cyanamide 20 mg/kg soil): 21.7 g | Root Condition Index (Hutcheson soybean; cyanamide 20 mg/kg soil): 1.6 | Shoot Height (Hutcheson soybean; cyanamide 20 mg/kg soil): 26.4 cm | Fresh Shoot Weight (Hutcheson soybean; cyanamide 40 mg/kg soil): 20.5 g | Root Condition Index (Hutcheson soybean; cyanamide 40 mg/kg soil): 1.4 | Shoot Height (Hutcheson soybean; cyanamide 40 mg/kg soil): 26.5 cm | Fresh Shoot Weight (Hutcheson soybean; cyanamide 60 mg/kg soil): 25.5 g | Root Condition Index (Hutcheson soybean; cyanamide 60 mg/kg soil): 1.1 | Shoot Height (Hutcheson soybean; cyanamide 60 mg/kg soil): 27 cm | Fresh Shoot Weight (Hutcheson soybean; cyanamide 80 mg/kg soil): 24.95 g | Root Condition Index (Hutcheson soybean; cyanamide 80 mg/kg soil): 1.1 | Shoot Height (Hutcheson soybean; cyanamide 80 mg/kg soil): 27.1 cm | Fresh Shoot Weight (Hutcheson soybean; cyanamide 120 mg/kg soil): 29.4 g | Root Condition Index (Hutcheson soybean; cyanamide 120 mg/kg soil): 1.3 | Shoot Height (Hutcheson soybean; cyanamide 120 mg/kg soil): 28.7 cm | Weeds Per Pot: Sicklepod (sicklepod; 6 d after treatment): 0.6 | Weeds Per Pot: Sicklepod (sicklepod; 13 d after treatment): 1.4 | Weeds Per Pot: Sicklepod (sicklepod; 20 d after treatment): 1 | Sicklepod weeds per pot (sicklepod; [16]): about one or fewer sicklepod weeds per pot
